Earlier results in patent publication US20150141462A1, “PHARMACEUTICAL COMPOSITIONS AND METHODS FOR TREATING DRUG ADDICTION AND PREVENTING A DRUG RELAPSE” (priority 2012, published 2015).

Tests used:
[1] = tested on: animal models of addiction; details: mGluR5 antagonists
[2] = not given; remark: listed apart in the source

| SMILES | self-administration of drugs of abuse [1] | extinction of cocaine-induced conditioned place preference (rats) | cocaine-seeking behavior (following intravenous self-administration) | reacquisition of cocaine self-administration (in vivo) | reinstatement ([2]; following methamphetamine self-administration) | extinction following methamphetamine self-administration ([2]; in vivo) |
| --- | --- | --- | --- | --- | --- | --- |
| Cc1cccc(C#Cc2ccccc2)n1.Cl [MPEP, 2-methyl-6-(phenylethynyl)pyridine hydrochloride] | reduce self-administration of virtually all drugs of abuse |  |  |  |  |  |
| Cc1nc(C#Cc2cccnc2)cs1 [MTEP, 3-((2-methyl-4-thiazolyl)ethynyl)pyridine] | reduce self-administration of virtually all drugs of abuse |  |  |  |  |  |
| N#Cc1cccc(C(=O)Nc2cc(-c3ccccc3)nn2-c2ccccc2)c1 [CDPPB, 3-cyano-N-(1,3-diphenyl-1H-pyrazol-5-yl)benzamide] |  | enhances extinction | reduces cocaine-seeking behavior | deters the reacquisition | reduced reinstatement slightly | improved extinction |
